# Measured values published in PMC9687610, “Adenosine-Mimicking Derivatives of 3-Aminopyrazine-2-Carboxamide: Towards Inhibitors of Prolyl-tRNA Synthetase with Antimycobacterial Activity” (Biomolecules, 2022).
# Like-named read-outs stand apart in the source and are kept apart here.
# Key:
# [1] = test system: M. aurum DSM 43999 (ATCC 23366); experiment: Microplate Alamar Blue Assay (MABA), M. aurum; type: cell-based; details: Mycolicibacterium aurum, read-out: M. aurum MIC
# [2] = test system: Trichophyton interdigitale CCM 8377 (ATCC 9533); experiment: Antifungal microdilution broth (EUCAST), TI; type: cell-based; details: Trichophyton interdigitale, 72 h, read-out: TI MIC
# [3] = test system: Lichtheimia corymbifera CCM 8077; experiment: Antifungal microdilution broth (EUCAST), LC; type: cell-based; details: Lichtheimia corymbifera, CCM8077; read after 24 h; read-out: LC MIC
# [4] = test system: Aspergillus fumigatus ATCC 204305; experiment: Antifungal microdilution broth (EUCAST), AF; type: cell-based; details: Aspergillus fumigatus, ATCC204305; read after 24 h; read-out: AF MIC
# [5] = test system: Staphylococcus aureus subsp. aureus CCM 4223 (ATCC 29213); experiment: Antibacterial microdilution broth (EUCAST), SA; type: cell-based; details: Staphylococcus aureus; read after 24 h; read-out: SA MIC
# [6] = test system: Klebsiella pneumoniae CCM 4415 (ATCC 10031); experiment: Antibacterial microdilution broth (EUCAST), KP; details: read after 24 h
# [7] = test system: Mycobacterium tuberculosis H37Ra ITM-M006710 (ATCC 9431); experiment: Microplate Alamar Blue Assay (MABA), Mtb H37Ra; type: cell-based; details: for MIC: Mycobacterium tuberculosis, 120 h, pH 6.6, MABA, Middlebrook 7H9 broth pH 6.6, resazurin after 120 h, read-out: Mtb H37Ra MIC
# [8] = test system: Escherichia coli CCM 3954 (ATCC 25922); experiment: Antibacterial microdilution broth (EUCAST), EC; type: cell-based; details: Escherichia coli; read after 24 h; read-out: EC MIC
# [9] = test system: Aspergillus flavus CCM 8363; experiment: Antifungal microdilution broth (EUCAST), AFla; type: cell-based; details: Aspergillus flavus, CCM8363; read after 24 h; read-out: AFla MIC
# [10] = test system: Enterococcus faecalis CCM 4224 (ATCC 29212); experiment: Antibacterial microdilution broth (EUCAST), EF; type: cell-based; details: Enterococcus faecalis; read after 24 h; read-out: EF MIC
# [11] = test system: Candida tropicalis CCM 8264 (ATCC 750); experiment: Antifungal microdilution broth (EUCAST), CT; type: cell-based; details: Candida tropicalis; read after 24 h; read-out: CT MIC
# [12] = test system: Staphylococcus epidermidis CCM 4418 (ATCC 12228); experiment: Antibacterial microdilution broth (EUCAST), SE; type: cell-based; details: read after 24 h, read-out: SE MIC
# [13] = test system: Mycobacterium smegmatis DSM 43465 (ATCC 607); experiment: Microplate Alamar Blue Assay (MABA), M. smegmatis; type: cell-based; details: Mycolicibacterium smegmatis, read-out: M. smegmatis MIC
# [14] = test system: HepG2 human hepatocellular carcinoma cells; experiment: In vitro HepG2 cytotoxicity (CellTiter 96); details: Homo sapiens, HepG2, 24 h, read-out: HepG2 IC50, 24 h incubation; * limit = highest evaluated concentration (precipitation in medium); ** over the 1000 µM limit
# [15] = test system: Candida krusei CCM 8271 (ATCC 6258); experiment: Antifungal microdilution broth (EUCAST), CK; type: cell-based; details: Pichia kudriavzevii; read after 24 h; read-out: CK MIC
# [16] = test system: Candida albicans CCM 8320 (ATCC 24433); experiment: Antifungal microdilution broth (EUCAST), CA; type: cell-based; details: Candida albicans; read after 24 h; read-out: CA MIC
# [17] = test system: Candida parapsilosis CCM 8260 (ATCC 22019); experiment: Antifungal microdilution broth (EUCAST), CP; type: cell-based; details: Lodderomyces parapsilosis; read after 24 h; read-out: CP MIC
# [18] = test system: Pseudomonas aeruginosa CCM 3955 (ATCC 27853); experiment: Antibacterial microdilution broth (EUCAST), PA; type: cell-based; details: Pseudomonas aeruginosa; read after 24 h; read-out: PA MIC
# [19] = test system: Staphylococcus aureus subsp. aureus methicillin-resistant (MRSA) CCM 4750 (ATCC 43300); experiment: Antibacterial microdilution broth (EUCAST), MRSA; type: cell-based; details: Staphylococcus aureus; read after 24 h; read-out: MRSA MIC
# [20] = test system: Acinetobacter baumannii DSM 30007 (ATCC 19606); experiment: Antibacterial microdilution broth (EUCAST), ACI; type: cell-based; details: Acinetobacter baumannii; read after 24 h; read-out: ACI MIC
Compound,"MIC ([1]; MABA, resazurin after 72 h) [µg/mL]",MIC [2] [µM],MIC [3] [µM],MIC [4] [µM],MIC [5] [µM],KP MIC [6] [µM],MIC [7] [µg/mL],MIC [8] [µM],MIC [9] [µM],MIC [10] [µM],MIC [11] [µM],MIC [12] [µM],IC50 [14] [µM],melting point [°C],MIC [15] [µM],MIC [16] [µM],MIC [17] [µM],MIC [18] [µM],MIC [19] [µM],MIC [20] [µM],other results
Cc1ccccc1C(=O)Nc1nccnc1C(N)=O [Compound 2],≥ 500,> 125,> 125,> 125,> 500,> 500,≥ 500,> 500,> 125,> 500,> 125,> 500,422,234.4 to 235.9,> 125,> 125,> 125,> 500,> 500,> 500,"MIC ([13]; MABA, resazurin after 48 h): ≥ 500 µg/mL"
Cc1cccc(C(=O)Nc2nccnc2C(N)=O)c1 [Compound 3],≥ 250,> 500,> 500,> 500,> 500,> 500,62.5,> 500,> 500,> 500,> 500,> 500,> 100,226.9 to 228.8,> 500,> 500,> 500,> 500,> 500,> 500,"MIC ([13]; MABA, resazurin after 48 h): ≥ 250 µg/mL"
CCc1ccc(C(=O)Nc2nccnc2C(N)=O)cc1 [Compound 5],≥ 500,> 250,> 250,> 250,> 250,> 250,≥ 500,> 250,> 250,> 250,> 250,> 250,> 100,215.5 to 218.5,> 250,> 250,> 250,> 250,> 250,> 250,"antimycobacterial activity (in words) ([7]; activity refers to Mtb H37Ra from the primary screening if not otherwise stated): no activity; MIC ([13]; MABA, resazurin after 48 h): ≥ 500 µg/mL"
CC(C)(C)c1ccc(C(=O)Nc2nccnc2C(N)=O)cc1 [Compound 6],≥ 500,> 125,> 125,> 125,> 125,> 125,15.6,> 125,> 125,> 125,> 125,> 125,114,210 to 211.5,> 125,> 125,> 125,> 125,> 125,> 125,MIC ([13]; 48 h): 15.6 µg/mL
COc1ccccc1C(=O)Nc1nccnc1C(N)=O [Compound 7],≥ 500,> 500,> 500,> 500,> 500,> 500,125,> 500,> 500,> 500,> 500,> 500,> 500,205.4 to 206.7,> 500,> 500,> 500,> 500,> 500,> 500,"MIC ([13]; MABA, resazurin after 48 h): 62.5 µg/mL"
COc1cccc(C(=O)Nc2nccnc2C(N)=O)c1 [Compound 8],≥ 250,> 500,> 500,> 500,> 500,> 500,≥ 250,> 500,> 500,> 500,> 500,> 500,> 100,221 to 223,> 500,> 500,> 500,> 500,> 500,> 500,"MIC ([13]; MABA, resazurin after 48 h): ≥ 250 µg/mL"
COc1ccc(C(=O)Nc2nccnc2C(N)=O)cc1 [Compound 9],,> 125,> 125,> 125,> 125,> 125,≥ 125,> 125,> 125,> 125,> 125,> 125,> 250,257 to 258.5,> 125,> 125,> 125,> 125,> 125,> 125,MIC ([1]; 72 h): ≥ 125 µg/mL; MIC ([13]; 48 h): ≥ 125 µg/mL
NC(=O)c1nccnc1NC(=O)c1ccccc1F [Compound 10],≥ 500,> 500,> 500,> 500,> 500,> 500,250,> 500,> 500,> 500,> 500,> 500,556,211 to 213,> 500,> 500,> 500,> 500,> 500,> 500,"MIC ([13]; MABA, resazurin after 48 h): ≥ 500 µg/mL"
